The values below come from article PMC12451337 (ESMO Open, 2025).

Values joined by “and” are separate entries in the source; they are usually repeats but may differ in a detail not shown here. Equal entries are not always repeated.

One series has as its system tumor cells in culture. The series can be described thus: Predicted ED95 against tumor cells in culture (nonclinical data). The class given is cell-based.
Series [1] deals with patients with advanced solid tumors. The experiment in a line: Phase I dose-escalation trial: safety and tolerability (TEAEs, DLTs, MTD, RP2D). Here is the method:
The study was carried out in compliance with the International Council for Harmonisation Good Clinical Practices, including the ethical principles of the Declaration of Helsinki. All patients provided signed informed consent before any study-specific procedures were carried out.
For determination of dose escalation, all toxicities, all available PK, and other relevant patient data occurring during the first cycle were considered. In addition, safety in patients ongoing in repeat cycles at lower doses was also taken into consideration by the Cohort Review Committee (CRC; consisting of investigators and the medical monitor), when making dose-escalation decisions. The determination of RP2D included the assessment of acute and chronic toxicities and tolerability (missing doses, dose reductions, etc.) and was informed by the experience of the totality of data. The maximum tolerated dose (MTD) was defined as the highest dose level at which one or fewer of six patients experienced dose-limiting toxicities (DLTs). […] A dose reduction at or after cycle 2 was granted in accordance with dose modification guidelines if, in the opinion of the investigator, a dose reduction was in the best interest of the patient.
Safety was monitored throughout the study.

Series [2] in a line: Pharmacokinetics in patients (plasma and tumor biopsy, LC-MS/MS).
Method: Blood was obtained from all patients and collected in anticoagulant tubes (K2-EDTA). Plasma samples were stored at −80°C until analysis (both drugs were validated as stable under these storage conditions). The PK analysis population included all patients who received at least one dose of AMXT 1501 and had at least one quantifiable AMXT 1501 plasma concentration postdose.
A further series can be described thus: clinical. Particulars: human, oral.
Series [3] has as its system polyamine transport in T cells. The experiment in a line: Whole blood assay: uptake of fluorescently labeled spermine analog by activated T cells (flow cytometry). The class given is cell-based, human. Here is the method:
To evaluate the target engagement activity of AMXT 1501 after administration, an ex vivo pharmacodynamic assay assessing lymphocyte spermine uptake and inhibition of uptake by AMXT 1501 was developed.
The purpose of the whole blood assay is to quantify the inhibition of polyamine transport in T cells in human subjects receiving AMXT 1501. Whole blood collected from subjects receiving AMXT 1501 was diluted with serum-free media and stimulated with anti-CD3 and anti-CD28 to drive T-cell activation and proliferation for a total of 3 days. During the last 12-18 h of culture, a fluorescently labeled spermine analog (compound 5)[38] was added to the in vitro culture to monitor polyamine uptake into cells. The functional activity (inhibitory effect) of AMXT 1501 on compound 5 uptake by T cells is then determined using flow cytometry by measuring the frequency and mean fluorescence intensity of compound 5+ T cells. Comparisons were made between the uptake in the pretreatment sample and samples taken over time postdose.
An ex vivo blood-based pharmacodynamic assay was developed to measure the inhibition of uptake of a fluorescently labeled polyamine analog by AMXT 1501 into activated CD4+ lymphocytes in culture. Using a fluorescence-activating cell sorting system, tracking of the cellular uptake of the fluorescence of this labeled polyamine was followed after CD3/CD28 activation.
A general note: In flow cytometry, cells or beads pass a laser one at a time.

The test system of the next series is polyamine transport. More on the design: method as in PMID 19281226. Particulars: without crossing the cell membrane; cited from earlier work.
[4] abbreviates: whole human blood samples treated with 0-2000 nM AMXT 1501, absence of DFMO.

As usually defined, the Kp is the ratio of the level in a tissue or fluid to that in plasma or blood. With `CCCCCCCCCCCCCCCC(=O)NCCCC[C@@H](N)C(=O)NCCCNCCCCNCCCN` [AMXT 1501, AMXT 1501 dicaprate], the “predicted effective dose 95% (ED95)” value with tumor cells in culture (in combination with DFMO, nonclinical data) is 100 nM. Besides, the “AMXT 1501 dose relationship with proportions of patients with TEAEs, treatment-related TEAEs or SAEs, discontinuation, dose interruption” value in series [1] (human, in vivo) is “no strong evidence for any AMXT 1501 dose relationship”. Besides, in series [1] (in combination with DFMO 500 mg b.i.d.), the “RP2D of AMXT 1501 in the combination” value was determined as 600 mg b.i.d. In series [1] (part 1, when given with DFMO 250 mg b.i.d.), this compound returned an MTD of 1800 mg o.d. Moreover, the “Part 1 AMXT 1501 recommended phase II dose (RP2D)” value in series [1] (part 1, with DFMO 250 mg b.i.d.) was 1800 mg o.d. Also, in series [2] (human, in vivo), the “AMXT 1501 exposure based on mean Cmax versus dose” value was “near dose-proportional”, the “Accumulation of AMXT 1501 after repeat dosing” value is given as “up to 10 fold”, the “Effect of DFMO administration on AMXT 1501 exposure” value is “no consistent effect” and the “Predose AMXT 1501 plasma concentration” value is 296 ng/mL. Besides, the “AMXT 1501 steady state obtained by” value in series [2] (human, in vivo, po) is on record as “cycle 1 day 14”. Further, the Kp in the series “clinical” (tumor biopsy / plasma) stood at 12. In addition, in “clinical” (tumor biopsy), the concentration at 30 days of treatment was 3480 ng/mL and 6.12 µM. Moreover, in series [3] (DFMO added to the culture), the “Inhibition of fluorescent marker transport with DFMO added to the culture” value is listed as “still able to potently inhibit this transport”. The “Target engagement in samples taken over time following dosing versus pretreatment” value in series [3] (ex vivo, patients' blood after oral dosing) is recorded as “sustained AMXT 1501 target engagement activity”. Besides, in series [3] (setting [4]), the “Concentration of maximal fluorescent-labeled spermine uptake inhibition” value was 250 nM and the “half maximum inhibitory concentration (ED50)” value was roughly 75 nM. Further, the “Blocks cellular uptake of spermidine” value with polyamine transport is recorded as “nanomolar range”.

In the case of `NCCCC(N)(C(=O)O)C(F)F` (centres unmarked) [DFMO, difluoromethylornithine, reference compound], the “predicted ED95 concentration” value in the series on tumor cells in culture is 100 μM and 18 200 ng/ml. Besides, the “DFMO exposure versus dose” value in series [2] (between the 500 and 1000 mg/day dose levels) is recorded as “approximately dose-proportional”. Besides, in series [2] (human, in vivo), the “Change in DFMO exposure with repeat dosing” value is recorded as “no substantial change” and the “Effect of AMXT 1501 dose level on DFMO exposure” value is “no apparent effect”. Also, the “Achievement of predicted DFMO ED95 concentration (100 μM) by oral delivery” value in series [2] (in combination with AMXT 1501) is given as “unable to achieve this level”. Also, the “Effect of DFMO addition on uptake of the fluorescent marker” value in series [3] (addition to the culture) was “increased the uptake of the fluorescent marker”.
